One experiment has as its target T1, human Nox4 (Homo sapiens, UniProt Q9NPH5).
T1 construct: expressed in transfected cells; host or cells: T-REx-293 (hNOX4 T-REx-293), tetracycline-induced; membrane fraction
T1 sequence (Q9NPH5 1-578): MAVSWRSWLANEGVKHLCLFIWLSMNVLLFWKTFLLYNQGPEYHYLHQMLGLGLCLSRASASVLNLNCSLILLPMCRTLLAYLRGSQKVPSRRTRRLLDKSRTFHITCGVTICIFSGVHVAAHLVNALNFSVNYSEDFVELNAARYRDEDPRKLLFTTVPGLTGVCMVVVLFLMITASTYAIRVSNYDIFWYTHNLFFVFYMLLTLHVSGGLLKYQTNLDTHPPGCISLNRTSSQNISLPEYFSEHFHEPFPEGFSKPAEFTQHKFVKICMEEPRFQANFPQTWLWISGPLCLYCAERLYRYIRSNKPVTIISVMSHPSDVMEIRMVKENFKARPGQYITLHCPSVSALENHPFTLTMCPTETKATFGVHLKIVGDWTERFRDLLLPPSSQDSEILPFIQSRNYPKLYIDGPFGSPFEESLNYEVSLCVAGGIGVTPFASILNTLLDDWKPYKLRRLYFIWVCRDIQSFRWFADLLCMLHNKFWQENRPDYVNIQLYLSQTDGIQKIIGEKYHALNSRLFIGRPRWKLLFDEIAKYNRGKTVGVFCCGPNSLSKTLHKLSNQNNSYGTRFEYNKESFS
T1 sequence (P13498 2-195 partner limits assumed): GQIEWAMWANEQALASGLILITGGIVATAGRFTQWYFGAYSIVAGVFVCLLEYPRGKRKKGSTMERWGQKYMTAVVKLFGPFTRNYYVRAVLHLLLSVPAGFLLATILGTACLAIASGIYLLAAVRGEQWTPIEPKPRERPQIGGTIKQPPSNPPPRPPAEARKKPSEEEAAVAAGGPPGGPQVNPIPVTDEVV
The experiment is described as follows: ROS production by membranes expressing human Nox4, cell-free Amplex Red assay. The class given is biochemical. As to conditions: cell-free membranes, Amplex Red; Cheng-Prusoff; average of at least three experiments in triplicate; read-out: Ki hNox4. The source says:
(§1) The Nox4 activity of Nox4 inhibitors according to the invention may be tested for their activity in the inhibition or reduction of formation of reactive oxygen species (ROS) from oxygen in cell free assays. In order to fully characterise Nox4 inhibitors, Nox subunit-specific cell-free, membrane-based systems have been developed and specific recombinant proteins have been added to membranes heterologously over-expressing their specific iso form. Nox enzymes produce superoxide (O2.−) as primary product, however due to the high instability and reactivity of this molecule which dismutates naturally into hydrogen peroxide (H2O2), therefore, read-out techniques involving probes that do measure H2O2 were used (e.g. using Amplex Red as a probe in order to facilitate consistent and accurate measurements). The activity of the compounds is tested in the following cell free assay using the techniques described here below:
Transfected T-REx™-CHO cells (R718-07) purchased from Invitrogen and T-REx™-293 cell line expressing hNOX4 (hNOX4 T-REx™-293) (Serrander et al., 2007, Biochem. J., 406, 105-114) were cultured in […]. Both media were supplemented with 10% FBS, 2 mM glutamine, penicillin (100 U/ml) and streptomycin (100 μg/ml). Selection pressure was maintained by continuous inclusion of blasticidin (5 μg/ml), and/or G418 (0.25 mg/ml), and/or Hygromycin (0.25 mg/ml) and/or zeocin (0.025 mg/ml).
(§2) Human Nox1, Nox2, Nox4, and Nox5 expression were induced with Tetracycline (1 μg/ml) during 24 h prior to the membrane preparation Membranes from transfected cells overexpressing Nox1, Nox2, Nox4 or Nox5 were prepared as previously described in Palicz et al., 2001, J. Biol. Chem., 76, 3090-3097. After resuspension in sonication buffer (11% sucrose, 120 mM NaCl, 1 mM EGTA in PBS, pH 7.4 for Nox4- or NOX5-expressing cells) or in relax buffer (10 mM Pipes, 3 mM NaCl, 3.5 mM MgCl2, 0.1M KCl, pH 7.4), cells were broken by sonication and centrifuged (200 g, 10 min). The supernatant was layered onto a 17/40% (w/v) discontinuous sucrose gradient and centrifuged (150,000×g for 60 min). Membrane fractions were collected from the 17/40% interface and were stored at −80° C. Protein concentration was determined with the Bradford reagent.
(§3) Reactive Oxygen Species (ROS) production by membranes expressing either human Nox1, or human Nox2 or human Nox4 or human Nox5 or by xanthine/xanthine oxidase were measured using the Amplex Red (AR) method following a slightly modified version of the manufacturer's instruction manual (Invitrogen). Briefly, membranes or xanthine were incubated in PBS with Amplex Red, Horse Radish Peroxidase (HRP) and appropriated co-factors. ROS production was induced by addition of NADPH to NOX-expressing membrane or by addition of xanthine to xanthine oxidase. Non-specific signal was measured in the absence of membranes or in the absence of xanthine.
Antagonist activity of compounds was measured in the presence of increasing concentrations ranging from 1 nM to 100 μM. After an incubation of 20 min in a plate shaker and incubator (Titramax 1000, VWR) at 37° C. with weak agitation (300 rpm), ROS levels were measured for 10 min in a BMG Fluostar microplate reader with excitation and emission wavelengths of 544 nm and 590 nm respectively.
Data were analysed using Prism (GraphPad Software Inc., San Diego, Calif.). Ki values were calculated using the Cheng-Prusoff equation and represent the average of at least three individual experiments performed in triplicate (Table 1). Nox4 inhibition was compared to that measured for Simvastatin (Enzo Life Sciences, CAS Number 79902-63-9) using the method described in Example 1. Reactive Oxygen Species (ROS) production by membranes expressing human Nox4 was measured using the Amplex Red (AR).

A further experiment deals with T2, human Nox2 (Homo sapiens, UniProt P04839).
T2 construct: host or cells: T-REx-CHO (hNOX2 T-REx-CHO), tetracycline-induced; membrane fraction
T2 sequence (P04839 2-570 limits assumed): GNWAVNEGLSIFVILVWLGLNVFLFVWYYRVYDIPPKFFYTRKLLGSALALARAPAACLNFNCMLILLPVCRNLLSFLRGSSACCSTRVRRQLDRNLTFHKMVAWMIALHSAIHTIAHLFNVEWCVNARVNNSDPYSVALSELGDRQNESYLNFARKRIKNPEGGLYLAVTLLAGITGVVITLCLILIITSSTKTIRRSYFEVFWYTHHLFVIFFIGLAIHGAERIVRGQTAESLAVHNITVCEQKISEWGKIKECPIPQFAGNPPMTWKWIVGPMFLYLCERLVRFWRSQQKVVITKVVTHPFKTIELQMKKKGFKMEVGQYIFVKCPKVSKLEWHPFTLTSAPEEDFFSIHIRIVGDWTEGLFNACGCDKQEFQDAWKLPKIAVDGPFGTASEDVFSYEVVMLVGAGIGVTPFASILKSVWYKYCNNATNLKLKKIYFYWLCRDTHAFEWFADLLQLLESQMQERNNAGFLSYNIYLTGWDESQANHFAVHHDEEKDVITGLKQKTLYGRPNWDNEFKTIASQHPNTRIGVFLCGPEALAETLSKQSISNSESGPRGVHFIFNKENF
T2 sequence (P13498 2-195 partner limits assumed): T1 sequence (P13498 2-195 partner limits assumed)
The experiment is described as follows: ROS production by membranes expressing human Nox2, cell-free Amplex Red assay. As to conditions: cell-free membranes, Amplex Red; Cheng-Prusoff; average of at least three experiments in triplicate; read-out: Ki hNox2. The class given is biochemical.
Excerpt: as §1
Human Nox1 (NM_007052.4), human NOX2 (NM_000397), and human NOX5 (NM_0245052244) cDNAs were cloned into the pcDNA5/TO (Invitrogen). Human p22 (NM_000101.2) was cloned into pcDNA3.1/Zeo (+) (Invitrogen), and human NOXA1 (AY255769.1) and human NOXO1 (AB097667) were cloned into the bi-cistronic pVITRO1-neo-mcs plasmid (Invivogen).
Cells were transfected by using the FuGENE 6 method. Cells stably expressing functional human Nox1 (hNOX1 T-REx™-CHO) were obtained by co-transfecting T-REx™-CHO cells with human Nox1, human p22, human NOXA1 and human NOXO1. Cells stably expressing functional human Nox2 (hNOX2 T-REx™-CHO) were obtained by co-transfecting T-REx™-CHO cells with human nox2, human p22 and human cofactors. Cells stably expressing functional human Nox5 (hNOX5 T-REx™-CHO) were obtained by transfecting T-REx™-CHO cells with human Nox5. Co-transfected cells were selected with the appropriate antibiotics for 10 days. For the selection, hygromycin and G418 were used at 2 mg/ml and zeocin at 0.1 mg/ml. For the establishment of each stably transfected cell line, a pool of antibiotic-resistant cells was generated. Cells were cloned by limiting dilution. Several clones were established and investigated for ROS production upon tetracycline-induced hNox expression using a cellular AR assay. The expression of NOXes was done with tetracycline (1 μg/ml) during 24 h prior to the assay.
as §2, §3
Antagonist activity of compounds was measured in the presence of increasing concentrations ranging from 1 nM to 100 μM. […]

The structures appear in SMILES notation.

By Ki is commonly meant a measure of affinity in units of concentration, obtained from inhibition or displacement. With `COc1ccc(-c2c3c(=O)n(-c4ccccc4Cl)[nH]c3cc(=O)n2Cc2ccn(C)n2)c(F)c1` [(4), 2-(2-chlorophenyl)-4-(2-fluoro-4-methoxyphenyl)-5-[(1-methyl-1H-pyrazol-3-yl)methyl]-1H-pyrazolo[4,3-c]pyridine-3,6(2H,5H)-dione], the Ki was 61 nM at human Nox4 and 813 nM on human Nox2.

In the case of `COc1ccc(F)c(-c2c3c(=O)n(-c4ccccc4OC)[nH]c3cc(=O)n2Cc2cccnc2)c1` [(5), 4-(2-fluoro-5-methoxyphenyl)-2-(2-methoxyphenyl)-5-(pyridin-3-ylmethyl)-1H-pyrazolo[4,3-c]pyridine-3,6(2H,5H)-dione], the Ki at human Nox4 is 63 nM; at human Nox2, 730 nM.

`COc1cc(Cn2c(C)c3c(=O)n(-c4ccccc4Cl)[nH]c3cc2=O)ccn1` [(6), 2-(2-chlorophenyl)-5-[(2-methoxypyridin-4-yl)methyl]-4-methyl-1H-pyrazolo[4,3-c]pyridine-3,6(2H,5H)-dione]: the Ki came out at 69 nM at human Nox4 and 715 nM at human Nox2.

On to `COc1ccccc1-n1[nH]c2cc(=O)n(Cc3cccnc3)c(C)c2c1=O` [(7), 2-(2-methoxyphenyl)-4-methyl-5-(pyridin-3-ylmethyl)-1H-pyrazolo[4,3-c]pyridine-3,6(2H,5H)-dione], for which the Ki on human Nox4 was determined as 72 nM; at human Nox2, 1170 nM.

Turning to `COc1ccccc1-n1[nH]c2cc(=O)n(Cc3cccnc3)c(-c3ccc(Cl)cc3F)c2c1=O` [(8), 4-(4-chloro-2-fluorophenyl)-2-(2-methoxyphenyl)-5-(pyridin-3-ylmethyl)-1H-pyrazolo[4,3-c]pyridine-3,6(2H,5H)-dione], the results for the Ki at human Nox4 and on human Nox2 were 73 nM and 750 nM, respectively.

As to `O=c1c2c(-c3cc(Cl)ccc3F)n(Cc3cccnc3)c(=O)cc2[nH]n1-c1ccccc1Cl` [(9), 4-(5-chloro-2-fluorophenyl)-2-(2-chlorophenyl)-5-(pyridin-3-ylmethyl)-1H-pyrazolo[4,3-c]pyridine-3,6(2H,5H)-dione], the Ki is 74 nM on human Nox4 and 650 nM on human Nox2.

Regarding `COc1ccc(Cn2c(C)c3c(=O)n(-c4ccccc4Cl)[nH]c3cc2=O)cn1` [(10), 2-(2-chlorophenyl)-5-[(6-methoxypyridin-3-yl)methyl]-4-methyl-1H-pyrazolo[4,3-c]pyridine-3,6(2H,5H)-dione], the figures for the inhibitory constant (Ki) on human Nox4 and at human Nox2 were 74 nM and 700 nM, respectively.

On to `O=c1c2c(-c3ccc(Cl)cc3F)n(Cc3cccnc3)c(=O)cc2[nH]n1-c1ccccc1Cl` [(11), 4-(4-chloro-2-fluorophenyl)-2-(2-chlorophenyl)-5-(pyridin-3-ylmethyl)-1H-pyrazolo[4,3-c]pyridine-3,6(2H,5H)-dione], for which the Ki at human Nox4 worked out at 75 nM; at human Nox2, 563 nM.

Consider `COc1ccc(F)c(-c2c3c(=O)n(-c4ccccc4OC)[nH]c3cc(=O)n2Cc2ccn(C)n2)c1` [(13), 4-(2-fluoro-5-methoxyphenyl)-2-(2-methoxyphenyl)-5-[(1-methyl-1H-pyrazol-3-yl)methyl]-1H-pyrazolo[4,3-c]pyridine-3,6(2H,5H)-dione], for which the results for the Ki at human Nox4 and on human Nox2 were 80 nM and 985 nM, respectively.

With `COc1ccccc1-n1[nH]c2cc(=O)n(Cc3cccnc3)c(-c3cc(Cl)ccc3F)c2c1=O` [(14), 4-(5-chloro-2-fluorophenyl)-2-(2-methoxyphenyl)-5-(pyridin-3-ylmethyl)-1H-pyrazolo[4,3-c]pyridine-3,6(2H,5H)-dione], the figures for the Ki on human Nox4 and on human Nox2 were 81 nM and 695 nM, respectively.

In the case of `Cc1c2c(=O)n(-c3ccccc3Cl)[nH]c2cc(=O)n1Cc1cccnc1` [(15), 2-(2-chlorophenyl)-4-methyl-5-(pyridin-3-ylmethyl)-1H-pyrazolo[4,3-c]pyridine-3,6(2H,5H)-dione], the results for the Ki on human Nox4 and on human Nox2 were 83 nM and 907 nM, respectively.

With `O=c1c2c(-c3ccc(Cl)cc3)n(Cc3cnccn3)c(=O)cc2[nH]n1-c1ccccc1Cl` [(16), 2-(2-chlorophenyl)-4-(4-chlorophenyl)-5-(pyrazin-2-ylmethyl)-1H-pyrazolo[4,3-c]pyridine-3,6(2H,5H)-dione], the Ki stood at 85 nM at human Nox4 and 720 nM at human Nox2.

The record behind these values is patent US20140323500A1, “NADPH OXIDASE 4 INHIBITORS AND USE THEREOF” (GENKYOTEX SA, priority 2011, published 2014).
